ChEMBL document CHEMBL1137256, “Iminosugars as potential inhibitors of glycogenolysis: structural insights into the molecular basis of glycogen phosphorylase inhibition” (J Med Chem, 2006)
Active and inactive are the calls of the source. The calls are words filed in the database; no cut-off is given here.

Experiments:
[1] = tested on: Hepatocyte; assay: cells; details: Homo sapiens
Description: Inhibition of glucagon-stimulated glycogen degradation in hepatocytes

[2] = tested on: Hepatocyte; assay: cells; details: Homo sapiens; remark: listed apart in the source
Description: Inhibition of glycogen degradation in hepatocytes

[3] = tested on: Liver; assay: Inhibition of liver […]; format: functional, tissue-based; details: Homo sapiens
[4] = species: Mus musculus; assay: Antihyperglycemic activity in obese mouse; format: functional, organism-based
[5] = molecular target: T1, Glycogen phosphorylase, liver form (Rattus norvegicus, UniProt P09811); assay: Inhibition of phosphorylated form of rat liver glycogen phosphorylase
T1 sequence (P09811 whole entry): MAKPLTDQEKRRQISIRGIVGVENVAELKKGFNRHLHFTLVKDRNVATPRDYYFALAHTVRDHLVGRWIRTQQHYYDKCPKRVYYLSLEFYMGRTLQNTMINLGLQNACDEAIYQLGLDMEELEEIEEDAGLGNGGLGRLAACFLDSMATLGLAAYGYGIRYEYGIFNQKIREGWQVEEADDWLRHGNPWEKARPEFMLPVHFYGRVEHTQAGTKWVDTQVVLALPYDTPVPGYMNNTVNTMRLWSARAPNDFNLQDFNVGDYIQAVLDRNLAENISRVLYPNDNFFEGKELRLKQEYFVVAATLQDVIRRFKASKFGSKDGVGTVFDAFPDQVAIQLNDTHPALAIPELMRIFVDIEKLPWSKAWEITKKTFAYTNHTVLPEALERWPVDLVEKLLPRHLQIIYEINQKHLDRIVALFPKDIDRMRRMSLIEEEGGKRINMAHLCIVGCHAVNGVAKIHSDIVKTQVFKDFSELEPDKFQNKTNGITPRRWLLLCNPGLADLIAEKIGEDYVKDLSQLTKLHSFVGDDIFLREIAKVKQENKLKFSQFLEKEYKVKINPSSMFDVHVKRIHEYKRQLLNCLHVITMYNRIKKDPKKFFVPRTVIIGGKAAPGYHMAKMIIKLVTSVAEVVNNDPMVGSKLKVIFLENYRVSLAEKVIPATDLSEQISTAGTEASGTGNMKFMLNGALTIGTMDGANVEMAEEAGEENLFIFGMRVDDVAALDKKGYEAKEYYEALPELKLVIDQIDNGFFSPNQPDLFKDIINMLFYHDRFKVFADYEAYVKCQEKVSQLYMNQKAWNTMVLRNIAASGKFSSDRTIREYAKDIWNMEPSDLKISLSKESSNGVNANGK

OC[C@H]1CNC[C@@H](O)[C@@H]1O [AFEGOSTAT]
IC50 [1]: 2000 nM
IC50 [2]: 3000 nM

OC[C@H]1NC[C@@H](O)[C@@H]1O
Activity [3]: Active
Activity [4]: Active

OC[C@H]1CN(CCCc2ccccc2)C[C@@H](O)[C@@H]1O
IC50 [5]: 1220 nM
